Target: T1, His-His-USP7 (aa208-560, |C315A|) (Homo sapiens, UniProt Q93009, C315A)
T1 construct: His-His-USP7 (aa208-560, |C315A|); His-His (N)
Assay: Evaluation of the inhibition of USP7 by the Fluorescence Intensity (FLINT) readings
Format: biochemical
Conditions: 0.25 nM His-His-USP7, compound incubated 60 minutes at 30° C., 500 nM Ubiquitin-Rhodamine-110 substrate; 50% reduction in kinetic rate
Description: USP7 activity was measured using Rhodamine-110 c-terminal labelled Ubiquitin as a substrate (UbiQ Bio). Incubation with USP7 results in the release of Rhodamine-110 leading to an increase in fluorescence which can be used in the continuous measurement of USP7 activity.
The USP7 reactions were performed in a 50 μL volume, in 384 well black solid low binding plates (Corning #3575). The reaction buffer consisted of 100 mM Bicine pH 8.0, 0.01% TritonX100, 1 mM TCEP, and 10% DMSO.
0.25 nM His-His-USP7 (aa208-560, |C315A|) was incubated with compound (final concentration 10% DMSO) for 60 minutes at 30° C. The reaction was then initiated by the addition of 500 nM Ubiquitin-Rhodamme-110 substrate and the plate read every 3 minutes for 21 minutes to measure the release of Rhodamine-110. Fluorescence Intensity (FLINT) readings were measured using a […] plate reader (Ex.485 nm, Em.535 nm).
The inhibition of increasing doses of compound was expressed as a percentage reduction in kinetic rate compared to the kinetic rates established between ‘DMSO only’ and ‘total inhibition’ controls (no USP7). The inhibitory concentrations that gave a 50% reduction in kinetic rate (IC50) were determined, from 11-point dose response cures, in XL-Fit using a 4-Parameter Logistic Model 205 (Sigmoidal Dose-Response Model).

T1 sequence (Q93009 208-560 C315A): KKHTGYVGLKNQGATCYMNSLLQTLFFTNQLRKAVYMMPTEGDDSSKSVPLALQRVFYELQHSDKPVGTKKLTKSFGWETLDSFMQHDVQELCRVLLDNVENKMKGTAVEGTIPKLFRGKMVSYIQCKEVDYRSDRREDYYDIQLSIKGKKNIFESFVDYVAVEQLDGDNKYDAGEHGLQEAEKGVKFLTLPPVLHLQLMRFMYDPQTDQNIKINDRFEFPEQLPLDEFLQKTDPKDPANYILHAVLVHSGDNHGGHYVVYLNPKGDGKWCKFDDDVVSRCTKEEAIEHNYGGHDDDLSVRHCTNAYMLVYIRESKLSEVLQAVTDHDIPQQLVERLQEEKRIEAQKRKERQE

Row | SMILES | IC50 [nM]
1 | Nc1c(Oc2ccc(CC(F)(F)F)cc2)ncn(CC2(O)CCN(C(=O)[C@@H]3CCC(F)(F)C[C@H]3c3ccccc3)CC2)c1=O [Example 37, 5-amino-3-({1-[(1R,2R)-4,4-difluoro-2-phenylcyclohexane-1-carbonyl]-4-hydroxypiperidin-4-yl}methyl)-6-[4-(2,2,2-trifluoroethyl)phenoxyl]pyrimidin-4(3H)-one] | 158
2 | Nc1c(Oc2ccc(CCF)cc2)ncn(CC2(O)CCN(C(=O)[C@@H]3CCC(F)(F)C[C@H]3c3ccccc3)CC2)c1=O [Example 39, 5-amino-3-({1-[(1R,2R)-4,4-difluoro-2-phenylcyclohexane-1-carbanyl]-4-hydroxypiperidin-4-yl}methyl)-6-[4-(2-fluoroethyl)phenoxy]pyrimidin4(3H)-one] | 116
3 | Nc1c(Oc2ccc(F)c(OC(F)(F)F)c2)ncn(CC2(O)CCN(C(=O)[C@@H]3CCC(F)(F)C[C@H]3c3ccccc3)CC2)c1=O [Example 40, 5-amino-3-({1-[(1R,2R)-4,4-difluoro-2-phenylcyclohexane-1-carbonyl]-4-hydroxypiperidin-4-yl}methyl)-6-[4-fluoro-3-(trifluoromethoxy)phenoxy]pyrimidin-4(3H)-one] | 132
4 | Nc1c(Oc2cccc(C3CCCCN3)c2)ncn(CC2(O)CCN(C(=O)[C@@H]3CCC(F)(F)C[C@H]3c3ccccc3)CC2)c1=O (stereo partly drawn) [Example 47, 5-amino-3-({1-[(1R,2R)-4,4-difluoro-2-phenylcyclohexane-1-carbonyl]-4-hydroxypiperidin-4-yl}methyl)-6-[3-(piperidin-2-yl)phenoxy]pyrimidin-4(3H)-one] | 8.81
5 | CC(C)(O)c1cccc(Oc2ncn(CC3(O)CCN(C(=O)[C@@H]4CCC(F)(F)C[C@H]4c4ccccc4)CC3)c(=O)c2N)c1 [Example 49, 5-amino-3-({1-[(1R,2R)-4,4-difluoro-2-phenylcyclohexane-1-carbonyl]-4-hydroxypiperidin-4-yl}methyl)-6-[3-(2-hydroxypropan-2yl)phenoxy]pyrimidin-4(3H)-one] | 138
6 | N#Cc1ccc(Oc2ncn(CC3(O)CCN(C(=O)[C@@H]4CCC(F)(F)C[C@H]4c4ccccc4)CC3)c(=O)c2N)cc1F [Example 50, 4-{[5-amino-1-({1-[(1R,2R)-4,4-fluoro-2-phenylcyclohexane-1-carbonyl]-4-hydroxypiperidin-4-yl}methyl)-6-oxo-1,6-dihydropyrimidin-4-yl]oxy}-2-fluorobenzonitrile] | 116
7 | N#Cc1ccc(Oc2ncn(CC3(O)CCN(C(=O)[C@@H]4CCC(F)(F)C[C@H]4c4ccccc4)CC3)c(=O)c2N)cc1Cl [Example 51, 4-{[5-amino-({1-[(1R,2R)-4,4difluoro-2-phenylcyclohexane-1-carbonyl]-4-hydroxypiperidin-4-yl}methyl)-6-oxo-1,6-dihydropyrimidin-4-yl]oxy}-2-chlorobenzonitrile] | 120
8 | N#Cc1ccc(Oc2ncn(CC3(O)CCN(C(=O)[C@@H]4CCC(F)(F)C[C@H]4c4ccccc4)CC3)c(=O)c2N)c(Cl)c1 [Example 53, 4-{[5-amino-1-([1-[(1R,2R)-4,4-difluoro-2-phenylcyclohexane-1-carbanyl]-4-hydroxypiperidin-4-yl]methyl)-6-oxo-1,6-dihydropyrimidin-4-yl]oxy}-3-chlorobenzonitrile] | 439
9 | O=C([C@@H]1CCC(F)(F)C[C@H]1c1ccccc1)N1CCC(O)(Cn2cnc(Oc3ccc(F)cc3)c(NCc3ccccc3)c2=O)CC1 [Example 57, 5-(benzylamino)-3-({1-[(1R,2R)-4,4-difluoro-2-phenylcyclohexane-1-carbonyl]-4-hydroxypiperidin-4-yl}methyl)-6-(4-fluorophenoxy)pyrimidin-4(3H)-one] | 611
10 | NC(=O)c1ccc(Oc2ncn(CC3(O)CCN(C(=O)[C@@H]4CCC(F)(F)C[C@H]4c4ccccc4)CC3)c(=O)c2N)cc1 [Example 58, 4-{[5-amino-1-({1-[(1R,2R)-4,4-difluoro-2-phenylcyclohexane-1-carbonyl]-4-hydroxypiperidin-4-yl}methyl)-6-oxo-1,6-dihydropyrimidin-4-yl]oxy}benzamide] | 67
11 | CNCc1ccc(Oc2ncn(CC3(O)CCN(C(=O)[C@@H]4CCC(F)(F)C[C@H]4c4ccccc4)CC3)c(=O)c2N)cc1 [Example 60, 5-amino-3-({1-((1R,2R)-4,4-difluoro-2-phenylcyclohexane-1-carbony]-4-hydroxypiperidin-4-yl}methyl)-6-{4-[(methylamino)methyl]phenoxy}pyrimidin-4(3H)-one] | 6.5
12 | NC(=O)c1cccc(Oc2ncn(CC3(O)CCN(C(=O)[C@@H]4CCC(F)(F)C[C@H]4c4ccccc4)CC3)c(=O)c2N)c1 [Example 62, 3-{[5-amino-1-([1-[(1R,2R)-4,4-difluoro-2-phenylcyclohexane-1-carbonyl]-4-hydroxypiperidin-4-yl]methyl)-6-oxy-1,6-dihydropyrimidin-4-yl]oxy}benzamide] | 100
13 | Nc1c(Oc2cccc(C(=O)O)c2)ncn(CC2(O)CCN(C(=O)[C@@H]3CCC(F)(F)C[C@H]3c3ccccc3)CC2)c1=O [Example 63] | 1620
14 | NCc1ccc(Oc2ncn(CC3(O)CCN(C(=O)[C@@H]4CCC(F)(F)C[C@H]4c4ccccc4)CC3)c(=O)c2N)c(Cl)c1 [Example 69, 5-amino-6-[4-(aminomethyl)-2-chlorophenoxyl]-3-({1-[(1R,2R)-4,4-difluoro-2-phenylcyclohexane-1-carbonyl]-4-hydroxypiperidin04-yl}methyl)pyrimidin-4(3H)-one] | 119
15 | Nc1c(Oc2ccc(CNc3ccccc3)cc2)ncn(CC2(O)CCN(C(=O)[C@@H]3CCC(F)(F)C[C@H]3c3ccccc3)CC2)c1=O [Example 70, 5-amino-6-[4-(anilinomethyl)phenoxy]-3-({1-[(1R,2R)-4,4-difluoro-2-phenylcyclohexane-1-carbonyl]-4-hydroxypiperidin-4-yl}methyl)pyrimidin-4(3H)-one] | 134
16 | Nc1c(Oc2ccc(CN(C=O)CC(F)(F)F)cc2)ncn(CC2(O)CCN(C(=O)[C@@H]3CCC(F)(F)C[C@H]3c3ccccc3)CC2)c1=O [Example 74, N-[(4-{[5-amino-1-({1-[(1R,2R)-4,4-difluoro-2-phenylcyclohexane-1-carbonyl]-4-hydroxypiperidin-4-yl}methyl)-6-oxo-1,6-dihydropyrimidin-4-yl]oxy}phenyl)methyl]-N-(2,2,2-trifluoroethyl)formamide] | 227
17 | Nc1c(Oc2ccc(F)cc2)ncn(C[C@]2(O)CCN(C(=O)[C@@H]3CCC(F)(F)C[C@H]3c3ccccc3)CC2(F)F)c1=O [Example 79, 5-amino-3-({(4R)-1-[(1R,2R)-4,4-difluoro-2-phenylcyclohexane-1-carbonyl]-3,3-difluoro-4-hydroxypiperidin-4-yl}methyl)-6-(4-fluorophenoxy)pyrimidin-4(3H)-one] | 228
18 | NC(=O)c1ccc(Oc2ncn(CC3(O)CCN(C(=O)[C@@H]4CCC(F)(F)C[C@H]4c4ccccc4)CC3)c(=O)c2N)cc1Cl [Example 80, 4-{[5-amino-1-({1-[(1R,2R)-4,4-difluoro-2-phenylcyclohexane-1-carbonyl]-4-hydroxypiperidin-4-yl}methyl)-6-oxo-1,6-dihydropyrimidin-4-yl]oxy}-2-chlorobentamide] | 375
19 | NC(=O)c1ccc(Oc2ncn(CC3(O)CCN(C(=O)[C@@H]4CCC(F)(F)C[C@H]4c4ccccc4)CC3)c(=O)c2N)cc1F [Example 81, 4-{[5-amino-1-({1-[(1R,2R)-4,4-difluoro-2-phenylcyclohexane-1-carbonyl]-4-hydroxypiperidin-4-yl}methyl)-6-oxo-1,6-dihydropyrimidin-4-yl]oxy}-2-fluorobenzamide] | 403
20 | Nc1c(Oc2cccnc2)ncn(CC2(O)CCN(C(=O)C3CCC(F)(F)CC3c3ccccc3)CC2)c1=O (stereo not drawn) [Example 84, 5-amino-3-({1-[(1,2-trans)-4,4-difluoro-2-phenylcyclohexane-1-carbonyl]-4-hydroxypiperidin-4-yl}methyl)-6-[(pyridin-3-yl)oxy]pyrimidin-4(3H)-one] | 212
21 | Nc1c(Oc2cnc3cc[nH]c3c2)ncn(CC2(O)CCN(C(=O)[C@@H]3CCC(F)(F)C[C@H]3c3ccccc3)CC2)c1=O [Example 106, 5-amino-3-([1-[(1R,2R)-4,4-difluoro-2-phenylcyclohexane-1-carbonyl]-4-hydroxypiperidin-4-yl]methyl)-6-[(1H-pyrrolo[3,2-b]pyridin-6-yl)oxy]pyrimidin-4(3H)-one] | 152
22 | NC(=O)c1ccc(Oc2ncn(CC3(O)CCN(C(=O)[C@@H]4CCC(F)(F)C[C@H]4c4ccccc4)CC3)c(=O)c2N)c(Cl)c1 [Example 107, 4-{[5-amino-1-({1-[(1R,2R)-4,4-difluoro-2-phenylcyclohexane-1-carbonyl]-4-hydroxypiperidin-4-yl}methyl)6-oxo-1,6-dihydropyrimidin-4-yl]oxy}-3-chlorobenzamide] | 479
23 | Nc1c(Oc2ccc(CCC3CCNCC3)cc2)ncn(CC2(O)CCN(C(=O)[C@@H]3CCC(F)(F)C[C@H]3c3ccccc3)CC2)c1=O [Example 112, 5-amino-3-([1-[(1R,2R)-4,4-difluoro-2-phenylcyclohexane-1-carbonyl]-4-hydroxypiperidin-4-yl]methyl)-6-[4-[2-(piperidin-4-yl)ethyl]phenoxy]pyrimidin-4(3H)-one] | 70.8

Reference: patent publication US20210221785A1, “AMINO-PYRIMIDONYL DERIVATIVES, A PROCESS FOR THEIR PREPARATION AND PHARMACEUTICAL COMPOSITIONS CONTAINING THEM” (LES LABORATOIRES SERVIER, priority 2018, published 2021)
